Broadly, the IC50 is the concentration that inhibits the measured activity by half. The low end stands for greater potency, the high end for weaker potency.

Data on 36 compounds can be found in patent US20250152574A1 (BIOGEN MA INC., priority 2022, published 2025).

For this assay, the target named is T1, EBP (Homo sapiens, UniProt Q15125).
T1 construct: HEK293T cells were utilized as the source of EBP enzyme; endogenous in cells; host or cells: HEK293T
Nature of the assay: EBP Functional Assay (EBP immunoaffinity LC-MS assay). The assay is classed as biochemical. To be noted: HEK293T cells as source of EBP enzyme; substrate zymosterol-d5, 37° C. for 4 h; percent conversion to dehydrolathosterol-d5 by LC-APCI MRM MS. As for the experimental part: The EBP immunoaffinity (IA) LC-MS assay measures the potency of small molecule inhibitors of EBP by quantifying their concentration-dependent changes in the enzyme's substrate and product using liquid chromatography atmospheric pressure chemical ionization multiple reaction monitoring mass spectrometry (LC-APCI MRM MS). HEK293T cells were utilized as the source of EBP enzyme. The enzyme was incubated with the small molecule inhibitors at variable concentrations for 30 min. Deuterated form of EBP substrate, zymosterol-d5 (Avanti Polar Lipids, Cat #700068P-1 mg), was then added and the plate was incubated at 37° C. for 4 h. Finally, the sterol isomers were extracted and injected to LC-APCI MRM MS. MRM transition used for the quantification for both zymosterol and […] (substrate and product of EBP enzymatic reaction, respectively) is 372.3-203.2, CE 30 and DP 80 in positive ion mode. Percent conversion of the zymosterol-d5 to dehydrolathosterol-d5 was used to derive IC50 curves. Tasin-1 (1′-[(4-Methoxyphenyl)sulfonyl]-4-methyl-1,4′-bipiperidine, CAS 792927-06-1) was used as the reference small molecule inhibitor.
Percent conversion versus the compound concentration data were fit to the following 4-parameter logistic model to generate IC50 curves: […]

T1 sequence (Q15125 whole entry): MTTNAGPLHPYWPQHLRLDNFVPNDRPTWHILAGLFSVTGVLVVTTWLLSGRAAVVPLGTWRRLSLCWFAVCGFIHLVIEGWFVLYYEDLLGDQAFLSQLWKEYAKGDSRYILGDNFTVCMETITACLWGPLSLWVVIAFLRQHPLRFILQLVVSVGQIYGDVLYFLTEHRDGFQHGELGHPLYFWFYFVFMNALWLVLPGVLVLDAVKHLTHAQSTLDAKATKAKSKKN

Consider `Cc1cc(C(F)(F)F)ncc1S(=O)(=O)N1CCC2(CC1)CC(N1CCOCC1)CO2` (stereo not drawn) [Example 4], for which the IC50 fell in the range of 250 to 1500 nM. With `Cc1cc(S(=O)(=O)N2CCC3(CC[C@H](N4CCOCC4)C3)CC2)n(C)n1` (single isomer, unassigned) [Example 22b] the figure was 100 to 250 nM; with `COc1ncc(C)cc1S(=O)(=O)N1CCC2(CCC(N3CC4(CCOC4)C3)C2)CC1` (stereo not drawn) [Example 43], under 100 nM; with `N#Cc1cc(F)cc(S(=O)(=O)N2CCC3(CC[C@H](N4CC5(COC5)C4)C3)CC2)c1` (single isomer, unassigned) [Example 85b], under 100 nM. `Cc1cc(S(=O)(=O)N2CCC3(CCC(N4CC5(COC5)C4)C3)CC2)n(C)n1` (stereo not drawn) [Example 142, 6-(8-((1,3-dimethyl-1H-pyrazol-5-yl)sulfonyl)-8-azaspiro[4.5]decan-2-yl)-2-oxa-6-azaspiro[3.3]heptane] gave a half-inhibitory concentration (IC50) of 100 to 250 nM. Compound `N#Cc1ccc(F)c(S(=O)(=O)N2CCC3(CC2)CC(N2C[C@H]4C[C@@H]2CO4)CO3)c1` (stereo partly drawn) [Example 45, 3-((3-((1R,4R)-2-oxa-5-azabicyclo[2.2.1]heptan-5-yl)-1-oxa-8-azaspiro[4.5]decan-8-yl)sulfonyl)-4-fluorobenzonitrile] showed an IC50 of 250 to 1500 nM. `O=S(=O)(c1ccc(OC(F)F)cc1)N1CCC2(CC[C@H](N3C[C@H]4C[C@@H]3CO4)C2)CC1` (single isomer, unassigned) [Example 86b]: the half-inhibitory concentration (IC50) is under 100 nM. In turn, `O=S(=O)(c1cnc2cccc(F)c2c1)N1CCC2(CCC(N3CC4(COC4)C3)C2)CC1` (stereo not drawn) [Example 132, 6-(8-((5-fluoroquinolin-3-yl)sulfonyl)-8-azaspiro[4.5]decan-2-yl)-2-oxa-6-azaspiro[3.3]heptane] came in with a 50% inhibitory concentration (IC50) of under 100 nM. `Cn1nc(C2CC2)cc1S(=O)(=O)N1CCC2(CC1)C[C@H](N1CC3(COC3)C1)CO2` (single isomer, unassigned) [Example 57b] displayed a 50% inhibitory concentration (IC50) of 250 to 1500 nM. As to `O=S(=O)(c1ccc(OC2CC2)cc1)N1CCC2(CCC(N3CC4(COC4)C3)C2)CC1` (stereo not drawn) [Example 134, 6-(8-((4-cyclopropoxyphenyl)sulfonyl)-8-azaspiro[4.5]decan-2-yl)-2-oxa-6-azaspiro[3.3]heptane], the IC50 is 250 to 1500 nM. The figure for `COc1cc(S(=O)(=O)N2CCC3(CCC(N4CC5(COC5)C4)C3)CC2)n(C)n1` (stereo not drawn) [Example 124, 6-(8-((3-methoxy-1-methyl-1H-pyrazol-5-yl)sulfonyl)-8-azaspiro[4.5]decan-2-yl)-2-oxa-6-azaspiro[3.3]heptane] is under 100 nM; for `COc1ncc(C)cc1S(=O)(=O)N1CCC2(CC1)CC(N1CC3(COC3)C1)CO2` (stereo not drawn) [Example 117, 8-((2-methoxy-5-methylpyridin-3-yl)sulfonyl)-3-(2-oxa-6-azaspiro[3.3]heptan-6-yl)-1-oxa-8-azaspiro[4.5]decane] it is 250 to 1500 nM; for `N#Cc1ccc(F)c(S(=O)(=O)N2CCC3(CC2)CC(N2CCCCC2)CO3)c1` (stereo not drawn) [Example 47, 4-Fluoro-3-((3-(piperidin-1-yl)-1-oxa-8-azaspiro[4.5]decan-8-yl)sulfonyl)benzonitrile] it is 100 to 250 nM. Compound `CC(C)Oc1ccc(S(=O)(=O)N2CCC3(CCC(N4CC5(COC5)C4)C3)CC2)cn1` (stereo not drawn) [Example 130, 6-(8-((6-isopropoxypyridin-3-yl)sulfonyl)-8-azaspiro[4.5]decan-2-yl)-2-oxa-6-azaspiro[3.3]heptane] registered a 50% inhibitory concentration (IC50) of 100 to 250 nM. In turn, `O=S(=O)(c1ccc(OC(F)F)cc1)N1CCC2(CC1)CC(N1CCCCC1)CO2` (stereo not drawn) [Example 14, 8-((4-(Difluoromethoxy)phenyl)sulfonyl)-3-(piperidin-1-yl)-1-oxa-8-azaspiro[4.5]decane] showed a 50% inhibitory concentration (IC50) of 250 to 1500 nM.

Turning to `O=S(=O)(c1cc(F)ccc1F)N1CCC2(CC1)CC(N1CCOCC1)CO2` (stereo not drawn) [Example 19, 8-((2,5-Difluorophenyl)sulfonyl)-3-morpholino-1-oxa-8-azaspiro[4.5]decane], the IC50 lay in the range of 250 to 1500 nM. For the compound `O=S(=O)(c1ccc(OC(F)F)cc1)N1CCC2(CCC(N3C[C@H]4C[C@@H]3CO4)C2)CC1` (stereo partly drawn) [Example 27, (1R,4R)-5-(8-((4-(Difluoromethoxy)phenyl)sulfonyl)-8-azaspiro[4.5]decan-2-yl)-2-oxa-5-azabicyclo[2.2.1]heptane], the half-maximal inhibitory concentration (IC50) was under 100 nM. `O=S(=O)(c1ccc2cccnc2c1)N1CCC2(CCC(N3CC4(COC4)C3)C2)CC1` (stereo not drawn) [Example 144, 6-(8-(quinolin-7-ylsulfonyl)-8-azaspiro[4.5]decan-2-yl)-2-oxa-6-azaspiro[3.3]heptane] yielded a half-maximal inhibitory concentration (IC50) of 100 to 250 nM.

On to `O=S(=O)(c1ccc(OC(F)F)cc1)N1CCC2(CC1)C[C@H](N1CC[C@]3(CCOC3)C1)CO2` (single isomer, unassigned) [Example 30b], for which the concentration for half-maximal inhibition (IC50) was in the range of 250 to 1500 nM. With `COc1ncc(Cl)cc1S(=O)(=O)N1CCC2(CC1)C[C@@H](N1CC3(COC3)C1)CO2` (single isomer, unassigned) [Example 63a] the figure was under 100 nM; with `O=S(=O)(c1cc(F)cc(F)c1)N1CCC2(CC1)CC(N1CC3(COC3)C1)CO2` (racemic) [Example 118, rac-8-((3,5-difluorophenyl)sulfonyl)-3-(2-oxa-6-azaspiro[3.3]heptan-6-yl)-1-oxa-8-azaspiro[4.5]decane], 100 to 250 nM; with `Cc1cc(S(=O)(=O)N2CCC3(CCC(N4CC5(COC5)C4)C3)CC2)cnc1C` (stereo not drawn) [Example 109], 100 to 250 nM. In the case of `Cc1cc(C(F)(F)F)ccc1S(=O)(=O)N1CCC2(CC1)CC(N1CCOCC1)CO2` (stereo not drawn) [Example 17, 8-((2-Methyl-4-(trifluoromethyl)phenyl)sulfonyl)-3-morpholino-1-oxa-8-azaspiro[4.5]decane], the half-inhibitory concentration (IC50) fell in the range of 250 to 1500 nM.

For `COCCN(C)C1CC2(CCN(S(=O)(=O)c3cc(C)nn3C)CC2)C1` [Example 91, 7-((1,3-dimethyl-1H-pyrazol-5-yl)sulfonyl)-N-(2-methoxyethyl)-N-methyl-7-azaspiro[3.5]nonan-2-amine], the IC50 fell in the range of 250 to 1500 nM. In turn, `Cn1nc(C2CC2)cc1S(=O)(=O)N1CCC2(CC1)CC(NC1CCOCC1)C2` [Example 120, 7-((3-cyclopropyl-1-methyl-1H-pyrazol-5-yl)sulfonyl)-N-(tetrahydro-2H-pyran-4-yl)-7-azaspiro[3.5]nonan-2-amine] came in with a half-inhibitory concentration (IC50) of under 100 nM. `O=S(=O)(c1cc(F)cc(F)c1)N1CCC2(CC1)C[C@@H](N1CC3(COC3)C1)CO2` (single isomer, unassigned) [Example 119b] came in with an IC50 of 100 to 250 nM. `Cc1nc(OC(F)F)ccc1S(=O)(=O)N1CCC2(CC1)CC(N1CC3(COC3)C1)C2` [Example 121, 6-(7-((6-(difluoromethoxy)-2-methylpyridin-3-yl)sulfonyl)-7-azaspiro[3.5]nonan-2-yl)-2-oxa-6-azaspiro[3.3]heptane] yielded a half-inhibitory concentration (IC50) of under 100 nM. On to `Cc1nc(C(F)(F)F)ccc1S(=O)(=O)N1CCC2(CC1)CC(N1CC(O)C1)C2` [Example 95, 1-(7-((2-methyl-6-(trifluoromethyl)pyridin-3-yl)sulfonyl)-7-azaspiro[3.5]nonan-2-yl)azetidin-3-ol], for which the concentration for half-maximal inhibition (IC50) is under 100 nM. As for `COCCN(C)C1COC2(CCN(S(=O)(=O)c3cc(C4CC4)nn3C)CC2)C1` (stereo not drawn) [Example 60, 8-((3-Cyclopropyl-1-methyl-1H-pyrazol-5-yl)sulfonyl)-N-(2-methoxyethyl)-N-methyl-1-oxa-8-azaspiro[4.5]decan-3-amine], the IC50 was 250 to 1500 nM. `Cc1cc(C)c(S(=O)(=O)N2CCC3(CC2)CC(N2CCC4(CCOC4)C2)CO3)cn1` (stereo not drawn) [Example 28, 8-((4,6-Dimethylpyridin-3-yl)sulfonyl)-3-(2-oxa-7-azaspiro[4.4]nonan-7-yl)-1-oxa-8-azaspiro[4.5]decane] had a half-inhibitory concentration (IC50) of 250 to 1500 nM.

As to `Cc1cc(S(=O)(=O)N2CCC3(CCC(N4C[C@@H]5C[C@H]4CO5)C3)CC2)n(C)n1` (stereo partly drawn) [Example 87, (1S,4S)-5-(8-((1,3-dimethyl-1H-pyrazol-5-yl)sulfonyl)-8-azaspiro[4.5]decan-2-yl)-2-oxa-5-azabicyclo[2.2.1]heptane], the IC50 lay in the range of 250 to 1500 nM. Consider `O=S(=O)(c1ccc2ncc(F)cc2c1)N1CCC2(CCC(N3CC4(COC4)C3)C2)CC1` (stereo not drawn) [Example 133, 6-(8-((3-fluoroquinolin-6-yl)sulfonyl)-8-azaspiro[4.5]decan-2-yl)-2-oxa-6-azaspiro[3.3]heptane], for which the IC50 was 100 to 250 nM. With `Cc1nc(C(F)(F)F)ccc1S(=O)(=O)N1CCC2(CC1)CC(NC1CCOCC1)CO2` (stereo not drawn) [Example 138, 8-((2-methyl-6-(trifluoromethyl)pyridin-3-yl)sulfonyl)-N-(tetrahydro-2H-pyran-4-yl)-1-oxa-8-azaspiro[4.5]decan-3-amine], the IC50 was 250 to 1500 nM. With `Cc1cc(S(=O)(=O)N2CCC3(CC[C@H](N4CC5(COC5)C4)C3)CC2)n(C)n1` (single isomer, unassigned) [Example 68b] the figure was 100 to 250 nM; with `Cc1cc(S(=O)(=O)N2CCC3(CC2)CC(N2CC4(COC4)C2)C3)n(C)n1` [Example 92, 6-(7-((1,3-dimethyl-1H-pyrazol-5-yl)sulfonyl)-7-azaspiro[3.5]nonan-2-yl)-2-oxa-6-azaspiro[3.3]heptane], 100 to 250 nM; with `Cc1cc(S(=O)(=O)N2CCC3(CCC(N4CCOCC4)C3)CC2)n(C)n1` (stereo not drawn) [Example 21, 4-(8-((1,3-Dimethyl-1H-pyrazol-5-yl)sulfonyl)-8-azaspiro[4.5]decan-2-yl)morpholine], 100 to 250 nM.
